Measured values reported in BindingDB's records for doi:10.1021/jm970333f (University of Catania, 1998).

Assay: Inhibition of [3H]pentazocine binding to sigma-1 sites in guinea pig brain membranes

C[C@@H]1[C@@H]2Cc3ccc(O)cc3[C@]1(C)CCN2CCNCc1ccccc1 [(2S,6R,11S)-3-(2-Benzylamino-ethyl)-6,11-dimethyl-1,2,3,4,5,6-hexahydro-2,6-methano-benzo[d]azocin-8-ol]
Ki: 30 nM

C[C@@H]1[C@@H]2Cc3ccc(O)cc3[C@]1(C)CCN2CCN1CCOCC1 [(2S,6R,11S)-6,11-Dimethyl-3-(2-morpholin-4-yl-ethyl)-1,2,3,4,5,6-hexahydro-2,6-methano-benzo[d]azocin-8-ol]
Ki: 13 nM

C[C@@H]1[C@@H]2Cc3ccc(O)cc3[C@]1(C)CCN2CCNc1ccccc1 [(2S,6R,11S)-6,11-Dimethyl-3-(2-phenylamino-ethyl)-1,2,3,4,5,6-hexahydro-2,6-methano-benzo[d]azocin-8-ol]
Ki: 5.9 nM

CCN(CCN1CC[C@@]2(C)c3cc(O)ccc3C[C@H]1[C@H]2C)c1ccccc1 [(2S,6R,11S)-3-[2-(Ethyl-phenyl-amino)-ethyl]-6,11-dimethyl-1,2,3,4,5,6-hexahydro-2,6-methano-benzo[d]azocin-8-ol]
Ki: 42 nM

C[C@@H]1[C@@H]2Cc3ccc(O)cc3[C@]1(C)CCN2CCN(C)C [(2S,6R,11S)-3-(2-Dimethylamino-ethyl)-6,11-dimethyl-1,2,3,4,5,6-hexahydro-2,6-methano-benzo[d]azocin-8-ol]
Ki: 20 nM

C=CCN1CCC2c3cc(O)ccc3CC1C2C (configuration not stated) [SK&F-10047]
Ki: 169 nM

C[C@@H]1[C@@H]2Cc3ccc(O)cc3[C@]1(C)CCN2CCN1CCCCCC1 [(2S,6R,11S)-3-(2-Azepan-1-yl-ethyl)-6,11-dimethyl-1,2,3,4,5,6-hexahydro-2,6-methano-benzo[d]azocin-8-ol]
Ki: 20 nM

C[C@@H]1[C@@H]2Cc3ccc(O)cc3[C@]1(C)CCN2CCNC1CCCCC1 [(2S,6R,11S)-3-(2-Cyclohexylamino-ethyl)-6,11-dimethyl-1,2,3,4,5,6-hexahydro-2,6-methano-benzo[d]azocin-8-ol]
Ki: 42 nM

C[C@@H]1[C@@H]2Cc3ccc(O)cc3[C@]1(C)CCN2CCN1CCCC1 [(2S,6R,11S)-6,11-Dimethyl-3-(2-pyrrolidin-1-yl-ethyl)-1,2,3,4,5,6-hexahydro-2,6-methano-benzo[d]azocin-8-ol]
Ki: 7.4 nM

C[C@@H]1[C@@H]2Cc3ccc(O)cc3[C@]1(C)CCN2CCN(C)c1ccccc1 [(2S,6R,11S)-6,11-Dimethyl-3-[2-(methyl-phenyl-amino)-ethyl]-1,2,3,4,5,6-hexahydro-2,6-methano-benzo[d]azocin-8-ol]
Ki: 5.6 nM

CCN(CC)CCN1CC[C@@]2(C)c3cc(O)ccc3C[C@H]1[C@H]2C [(2S,6R,11S)-3-(2-Diethylamino-ethyl)-6,11-dimethyl-1,2,3,4,5,6-hexahydro-2,6-methano-benzo[d]azocin-8-ol]
Ki: 15 nM

C[C@@H]1[C@@H]2Cc3ccc(O)cc3[C@]1(C)CCN2CCN1CCCCC1 [(2S,6R,11S)-6,11-Dimethyl-3-(2-piperidin-1-yl-ethyl)-1,2,3,4,5,6-hexahydro-2,6-methano-benzo[d]azocin-8-ol]
Ki: 9.6 nM
